Read-outs that look alike come from different tables or passages of the source.
What was measured:
[1] = system: neointimal formation in rats; conditions: balloon injury model; cited from earlier work
[2] = system: spontaneously hypertensive rat, renal hypertensive rat and deoxycortisone acetate salt hypertensive rat models; conditions: cited from earlier work
Dahl salt-sensitive rats = conditions: rat, in vivo; cited from earlier work
[3] = system: IL-1 beta-induced coronary stenosis; conditions: long term treatment; cited from earlier work
rat stroke model = conditions: in vivo; cited from earlier work
ROCK2 = ROCK2 (Homo sapiens (Human), UniProt O75116); assay: ROCK assay (peptide substrate phosphorylation, LABCHIP 3000 Reader); type: biochemical
How it was run: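 Tested across a concentration range, with percent inhibition of kinase activity derived per concentration. Peptide phosphorylation, initiated by adding the Rho kinase variant (final DMSO <2%), was quenched with EDTA and substrate/product resolved by mobility shift.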

[4] = 5 μM ATP, 1.5 μM peptide substrate

ROCK2, sequence (O75116 whole entry, species assumed): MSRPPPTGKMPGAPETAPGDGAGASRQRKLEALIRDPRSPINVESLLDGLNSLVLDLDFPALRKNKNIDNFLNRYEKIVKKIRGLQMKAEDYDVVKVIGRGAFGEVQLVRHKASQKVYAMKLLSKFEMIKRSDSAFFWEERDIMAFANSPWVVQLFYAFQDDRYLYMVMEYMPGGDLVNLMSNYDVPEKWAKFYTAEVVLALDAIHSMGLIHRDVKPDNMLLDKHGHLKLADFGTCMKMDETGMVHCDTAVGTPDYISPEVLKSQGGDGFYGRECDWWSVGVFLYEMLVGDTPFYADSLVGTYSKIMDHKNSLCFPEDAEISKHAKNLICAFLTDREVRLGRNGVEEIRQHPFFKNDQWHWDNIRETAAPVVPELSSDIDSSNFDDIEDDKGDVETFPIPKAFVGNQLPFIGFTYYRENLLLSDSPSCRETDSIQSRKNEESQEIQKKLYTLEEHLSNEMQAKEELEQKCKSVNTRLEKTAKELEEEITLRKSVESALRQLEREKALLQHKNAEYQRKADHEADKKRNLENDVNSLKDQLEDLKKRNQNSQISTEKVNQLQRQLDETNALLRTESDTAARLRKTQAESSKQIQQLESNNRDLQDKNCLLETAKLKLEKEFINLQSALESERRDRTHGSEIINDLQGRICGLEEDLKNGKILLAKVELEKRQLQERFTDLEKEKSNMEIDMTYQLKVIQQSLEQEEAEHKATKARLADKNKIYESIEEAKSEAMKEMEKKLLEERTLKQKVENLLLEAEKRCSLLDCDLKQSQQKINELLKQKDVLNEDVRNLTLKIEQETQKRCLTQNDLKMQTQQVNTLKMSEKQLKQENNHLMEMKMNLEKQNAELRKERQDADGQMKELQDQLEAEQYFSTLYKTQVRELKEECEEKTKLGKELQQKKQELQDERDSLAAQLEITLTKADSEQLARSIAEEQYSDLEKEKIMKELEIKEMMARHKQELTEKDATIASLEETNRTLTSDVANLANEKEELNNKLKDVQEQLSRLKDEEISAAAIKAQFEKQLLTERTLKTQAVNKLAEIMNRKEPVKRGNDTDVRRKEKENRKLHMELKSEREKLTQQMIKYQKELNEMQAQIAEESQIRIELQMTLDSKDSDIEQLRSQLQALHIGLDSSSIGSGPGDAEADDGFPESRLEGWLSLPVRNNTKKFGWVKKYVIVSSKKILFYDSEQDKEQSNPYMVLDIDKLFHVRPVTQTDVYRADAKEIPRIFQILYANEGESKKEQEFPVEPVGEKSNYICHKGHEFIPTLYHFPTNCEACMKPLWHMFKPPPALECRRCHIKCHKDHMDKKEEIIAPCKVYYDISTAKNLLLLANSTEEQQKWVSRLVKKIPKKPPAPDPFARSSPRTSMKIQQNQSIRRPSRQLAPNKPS

IC50 (ROCK2; [4])	Compound	further results
0.00459 µM	COc1cc(C(=O)N2CCC[C@@H]2c2cccc(C(=O)NC3CC3)c2)ccc1-c1cn[nH]c1 [Example 42, N-cyclopropyl-3-[(2R)-1-[3-methoxy-4-(1H-pyrazol-4-yl)benzoyl]pyrrolidin-2-yl]benzamide]	
1.63 µM	COc1cccc(C2CCCN2C(=O)c2ccc(-c3cn[nH]c3)c(OC)c2)c1 (centres unmarked) [Example 11, 4-{2-methoxy-4-[2-(3-methoxyphenyl)pyrrolidine-1-carbonyl]phenyl}-1H-pyrazole]	
0.00542 µM	COc1cc(C(=O)N2CC(OC)C[C@@H]2c2cccc(C(=O)NCC3CC3)c2)ccc1-c1cn[nH]c1 (stereo partly drawn) [Example 86, N-(Cyclopropylmethyl)-3-[(2R)-4-methoxy-1-[3-methoxy-4-(1H-pyrazol-4-yl)benzoyl]pyrrolidin-2-yl]benzamide]	
0.0544 µM	COC(=O)c1cccc([C@H]2CC(OC(C)=O)CN2C(=O)c2ccc(-c3cn[nH]c3)c(OC)c2)c1 (stereo partly drawn) [Example 43, Methyl 3-[(2R)-4-(acetyloxy)-1-[3-methoxy-4-(1H-pyrazol-4-yl)benzoyl]pyrrolidin-2-yl]benzoate]	
1.53 µM	COc1cc(C(=O)N2CCCC2c2cccc(-c3ccnn3C)c2)ccc1-c1cn[nH]c1 (centres unmarked) [Example 73, 5-(3-{1-[3-methoxy-4-(1H-pyrazol-4-yl)benzoyl]pyrrolidin-2-yl}phenyl)-1-methyl-1H-pyrazole]	
0.0497 µM	COc1cc(C(=O)N2CC(O)C[C@@H]2c2cccc(C(=O)O)c2)ccc1-c1cn[nH]c1 (stereo partly drawn) [Example 44, 3-[(2R)-4-Hydroxy-1-[3-methoxy-4-(1H-pyrazol-4-yl)benzoyl]pyrrolidin-2-yl]benzoic acid]	
0.00553 µM	COc1cc(C(=O)N2CCC[C@@H]2c2cccc(C(=O)NC3CCS(=O)(=O)C3)c2)ccc1-c1cn[nH]c1 (stereo partly drawn) [Example 41, N-(1,1-dioxo-1λ^6-thiolan-3-yl)-3-[(2R)-1-[3-methoxy-4-(1H-pyrazol-4-yl)benzoyl]pyrrolidin-2-yl]benzamide]	
0.00279 µM	COc1cc(C(=O)N2CCCC2c2cccc(S(N)(=O)=O)c2)ccc1-c1cn[nH]c1 (centres unmarked) [Example 18, 3-{1-[3-methoxy-4-(1H-pyrazol-4-yl)benzoyl]pyrrolidin-2-yl} benzene-1-sulfonamide]	

More lines, now with the values behind:

Compound	IC50 (ROCK2; [4])	further results
C[C@@H](N)[C@H]1CC[C@H](C(=O)Nc2ccncc2)CC1 [Example Y-27632, Y-27632]		neointimal formation [1]: inhibited neointimal formation; blood pressure ([2]; control rats): only a minor effect on blood pressure; blood pressure ([2]; three rat models of hypertension): significantly decrease blood pressure; ventricular hypertrophy, fibrosis and function (Dahl salt-sensitive rats): improve ventricular hypertrophy, fibrosis and function
O=S(=O)(c1cccc2cnccc12)N1CCCNCC1 [fasudil]		coronary constrictive remodeling [3]: promote a regression of coronary constrictive remodeling; coronary stenosis [3]: progressively reduce coronary stenosis; infarct size and neurologic deficit (rat stroke model): reduce both the infarct size and neurologic deficit
COc1cc(C(=O)N2C[C@](C)(O)C[C@@H]2c2cccc(C(=O)NCC3CC3)c2)ccc1-c1cn[nH]c1 [Example 88, N-(Cyclopropylmethyl)-3-[(2R,4R)-4-hydroxy-1-[3-methoxy-4-(1H-pyrazol-4-yl)benzoyl]-4-methylpyrrolidin-2-yl]benzamide]	0.0106 µM	
COc1cc(C(=O)N2CC(O)C[C@@H]2c2cccc(C(=O)NCc3cc(F)cc(C(F)(F)F)c3)c2)ccc1-c1cn[nH]c1 (stereo partly drawn) [Example 66, N-{[3-fluoro-5-(trifluoromethyl)phenyl]methyl}-3-[(2R)-4-hydroxy-1-[3-methoxy-4-(1H-pyrazol-4-yl)benzoyl]pyrrolidin-2-yl]benzamide]	0.00435 µM	
COc1cc(C(=O)N2CCC[C@@H]2C(=O)OC(C)(C)C)ccc1-c1cn[nH]c1 [Example 24, tert-butyl (2R)-1-[3-methoxy-4-(1H-pyrazol-4-yl)benzoyl] pyrrolidine-2-carboxylate]	1.1 µM	
COc1cc(C(=O)N2CC(O)C[C@@H]2c2ccc3cn[nH]c3c2)ccc1-c1cn[nH]c1 (stereo partly drawn) [Example 108, (5R)-5-(1H-Indazol-6-yl)-1-[3-methoxy-4-(1H-pyrazol-4-yl)benzoyl] pyrrolidin-3-ol]	0.00765 µM	
N#Cc1cc(C(=O)N2C[C@H](O)C[C@@H]2c2ccccc2F)ccc1-c1cn[nH]c1 [Example 96, 5-[(2R,4R)-2-(2-Fluorophenyl)-4-hydroxypyrrolidine-1-carbonyl]-2-(1H-pyrazol-4-yl)benzonitrile]		IC50 (ROCK2): 0.667 µM

Source: patent publication US10112939B2, “Tied-back benzamide derivatives as potent rock inhibitors” (Bristol-Myers Squibb Company, priority 2014, dated 2018)
